Assay: osmotic coefficient (dimensionless); mn = molality of the nth substance listed, in mol/kg
Conditions: 298.15 K, Liquid, isopiestic method

CCCC[N+](CC)(CC)CC.[I-] [butyltriethylammonium iodide] + O
Conditions | osmotic coefficient
m1 = 0.0475 | 0.9775
m1 = 0.0571 | 0.9735
m1 = 0.076 | 0.9668
m1 = 0.0898 | 0.9582
m1 = 0.0991 | 0.9545
m1 = 0.1499 | 0.94
m1 = 0.1571 | 0.93
m1 = 0.1638 | 0.9298
m1 = 0.1729 | 0.9266
m1 = 0.189 | 0.9199
m1 = 0.2281 | 0.9038
m1 = 0.293 | 0.8831
m1 = 0.3288 | 0.8677
m1 = 0.38 | 0.8544
m1 = 0.4288 | 0.837
m1 = 0.435 | 0.834
m1 = 0.4582 | 0.824
m1 = 0.5067 | 0.795
m1 = 0.5888 | 0.77
m1 = 0.7326 | 0.708
m1 = 0.7462 | 0.695
m1 = 0.76 | 0.691
m1 = 0.855 | 0.655
m1 = 0.9926 | 0.606
m1 = 1.093 | 0.569
m1 = 1.132 | 0.562
m1 = 1.178 | 0.554
m1 = 1.305 | 0.523
m1 = 1.503 | 0.481
m1 = 1.645 | 0.456
m1 = 1.681 | 0.45
m1 = 1.738 | 0.439
m1 = 1.782 | 0.433
m1 = 1.811 | 0.428

CCCCCCC[N+](CC)(CC)CC.[I-] [heptyltriethylammonium iodide] + O
Conditions | osmotic coefficient
m1 = 0.0575 | 0.8694
m1 = 0.077 | 0.84
m1 = 0.0876 | 0.829
m1 = 0.1022 | 0.815
m1 = 0.1082 | 0.805
m1 = 0.1205 | 0.787
m1 = 0.1533 | 0.757
m1 = 0.1727 | 0.742
m1 = 0.175 | 0.736
m1 = 0.1805 | 0.723
m1 = 0.2592 | 0.67
m1 = 0.2917 | 0.642
m1 = 0.3136 | 0.635
m1 = 0.3583 | 0.614
m1 = 0.4282 | 0.58
m1 = 0.4477 | 0.577
m1 = 0.4858 | 0.553
m1 = 0.5029 | 0.548
m1 = 0.5121 | 0.54
m1 = 0.5894 | 0.52
m1 = 0.6973 | 0.486
m1 = 0.787 | 0.45
m1 = 0.8401 | 0.434
m1 = 0.89 | 0.427
m1 = 1.105 | 0.384
m1 = 1.341 | 0.34
m1 = 1.504 | 0.325
m1 = 1.803 | 0.297
m1 = 1.921 | 0.289
m1 = 2.205 | 0.263
m1 = 2.515 | 0.253
m1 = 2.79 | 0.247
m1 = 2.96 | 0.24
m1 = 3 | 0.242

CCCCCC[N+](CC)(CC)CC.[I-] [hexyltriethylammonium iodide] + O
Conditions | osmotic coefficient
m1 = 0.0542 | 0.9221
m1 = 0.0712 | 0.9085
m1 = 0.0797 | 0.9098
m1 = 0.0926 | 0.8987
m1 = 0.0971 | 0.8963
m1 = 0.107 | 0.8864
m1 = 0.1332 | 0.8718
m1 = 0.1502 | 0.8528
m1 = 0.1517 | 0.8493
m1 = 0.153 | 0.8537
m1 = 0.2121 | 0.819
m1 = 0.232 | 0.808
m1 = 0.2494 | 0.798
m1 = 0.2836 | 0.775
m1 = 0.3308 | 0.751
m1 = 0.3473 | 0.744
m1 = 0.3651 | 0.737
m1 = 0.3804 | 0.724
m1 = 0.3878 | 0.713
m1 = 0.4518 | 0.678
m1 = 0.5224 | 0.648
m1 = 0.5588 | 0.633
m1 = 0.5839 | 0.624
m1 = 0.6237 | 0.609
m1 = 0.7289 | 0.582
m1 = 0.8228 | 0.555
m1 = 0.9203 | 0.531
m1 = 1.101 | 0.487
m1 = 1.171 | 0.475
m1 = 1.275 | 0.454
m1 = 1.512 | 0.421
m1 = 1.84 | 0.375
m1 = 1.94 | 0.366
m1 = 2.04 | 0.356
m1 = 2.24 | 0.337
m1 = 2.344 | 0.329

CC[N+](C)(CC)CC.[I-] [methyltriethylammonium iodide] + O
Conditions | osmotic coefficient
m1 = 0.0478 | 0.739
m1 = 0.0576 | 0.714
m1 = 0.0766 | 0.673
m1 = 0.0902 | 0.648
m1 = 0.0995 | 0.632
m1 = 0.1505 | 0.564
m1 = 0.1558 | 0.556
m1 = 0.1631 | 0.548
m1 = 0.1721 | 0.539
m1 = 0.1879 | 0.523
m1 = 0.2254 | 0.488
m1 = 0.2898 | 0.44
m1 = 0.324 | 0.421
m1 = 0.3742 | 0.391
m1 = 0.4177 | 0.371
m1 = 0.4237 | 0.368
m1 = 0.4447 | 0.36
m1 = 0.4801 | 0.347
m1 = 0.5528 | 0.321
m1 = 0.6505 | 0.294
m1 = 0.6561 | 0.295
m1 = 0.6693 | 0.291
m1 = 0.7286 | 0.28
m1 = 0.8032 | 0.265
m1 = 0.8482 | 0.259
m1 = 0.8851 | 0.255
m1 = 0.9205 | 0.249
m1 = 0.9981 | 0.241
m1 = 1.101 | 0.232
m1 = 1.2 | 0.226
m1 = 1.22 | 0.224
m1 = 1.25 | 0.223
m1 = 1.29 | 0.22
m1 = 1.37 | 0.219

CCCCC[N+](CC)(CC)CC.[I-] [pentyltriethylammonium iodide] + O
Conditions | osmotic coefficient
m1 = 0.0539 | 0.9283
m1 = 0.0703 | 0.9203
m1 = 0.0798 | 0.9092
m1 = 0.0922 | 0.903
m1 = 0.0976 | 0.8923
m1 = 0.1065 | 0.891
m1 = 0.132 | 0.8799
m1 = 0.1471 | 0.8712
m1 = 0.1482 | 0.8694
m1 = 0.1501 | 0.8697
m1 = 0.2076 | 0.8364
m1 = 0.2284 | 0.821
m1 = 0.2454 | 0.811
m1 = 0.2742 | 0.802
m1 = 0.3148 | 0.789
m1 = 0.3295 | 0.784
m1 = 0.3456 | 0.778
m1 = 0.3579 | 0.77
m1 = 0.3614 | 0.765
m1 = 0.4108 | 0.746
m1 = 0.4718 | 0.718
m1 = 0.498 | 0.711
m1 = 0.514 | 0.709
m1 = 0.5434 | 0.699
m1 = 0.6238 | 0.68
m1 = 0.6938 | 0.658
m1 = 0.7814 | 0.625
m1 = 0.9005 | 0.595
m1 = 0.9578 | 0.58
m1 = 1.015 | 0.571
m1 = 1.199 | 0.531
m1 = 1.359 | 0.508
m1 = 1.465 | 0.485
m1 = 1.549 | 0.468
m1 = 1.688 | 0.447

CC[N+](CC)(CC)CC.[I-] [tetraethylammonium iodide] + O
Conditions | osmotic coefficient
m1 = 0.0519 | 0.8954
m1 = 0.0633 | 0.8781
m1 = 0.086 | 0.8544
m1 = 0.1019 | 0.8443
m1 = 0.1134 | 0.834
m1 = 0.1748 | 0.806
m1 = 0.1826 | 0.8
m1 = 0.1916 | 0.795
m1 = 0.2018 | 0.794
m1 = 0.2218 | 0.784
m1 = 0.2718 | 0.758
m1 = 0.3586 | 0.722
m1 = 0.3999 | 0.714
m1 = 0.4738 | 0.685
m1 = 0.5329 | 0.674
m1 = 0.5415 | 0.67
m1 = 0.5698 | 0.662
m1 = 0.6153 | 0.655
m1 = 0.7181 | 0.631
m1 = 0.8456 | 0.613
m1 = 0.8512 | 0.609
m1 = 0.8671 | 0.606
m1 = 0.9377 | 0.597
m1 = 1.032 | 0.583
m1 = 1.076 | 0.578
m1 = 1.109 | 0.574
m1 = 1.151 | 0.566
m1 = 1.224 | 0.558
m1 = 1.309 | 0.553
m1 = 1.373 | 0.546
m1 = 1.391 | 0.543
m1 = 1.403 | 0.544
m1 = 1.429 | 0.54
m1 = 1.442 | 0.537

CC[N+](CC)(CC)C(C)C.[I-] [triethylisopropylammonium iodide] + O
Conditions | osmotic coefficient
m1 = 0.0475 | 0.9777
m1 = 0.057 | 0.9749
m1 = 0.0757 | 0.9713
m1 = 0.0889 | 0.968
m1 = 0.0981 | 0.9643
m1 = 0.1471 | 0.9579
m1 = 0.1528 | 0.9563
m1 = 0.1597 | 0.9537
m1 = 0.1682 | 0.9525
m1 = 0.1838 | 0.9459
m1 = 0.2194 | 0.9398
m1 = 0.2793 | 0.9267
m1 = 0.3108 | 0.918
m1 = 0.3581 | 0.9067
m1 = 0.408 | 0.88
m1 = 0.4103 | 0.884
m1 = 0.4322 | 0.8735
m1 = 0.4691 | 0.8589
m1 = 0.5492 | 0.825
m1 = 0.6807 | 0.762
m1 = 0.6907 | 0.751
m1 = 0.7103 | 0.74
m1 = 0.8103 | 0.691
m1 = 0.9083 | 0.662
m1 = 0.9858 | 0.631
m1 = 1.081 | 0.589
m1 = 1.111 | 0.587
m1 = 1.22 | 0.559
m1 = 1.326 | 0.546
m1 = 1.388 | 0.541
m1 = 1.402 | 0.539
m1 = 1.428 | 0.535
m1 = 1.448 | 0.533
m1 = 1.462 | 0.53

— the NIST ThermoML archive (doi:10.1016/j.fluid.2006.09.025)
